Three compounds from patent US6545182B2, “Methods and compositions for modulating alpha adrenergic receptor activity” (Allergan Sales, Inc., priority 2000, dated 2003) can be followed below.

Molecules are shown by their SMILES.

Series [1] has as its system rats with ligated L5 and L6 spinal nerves. Description: rat spinal nerve ligation allodynia model (chronic pain). The note with it: for reduction of the response to tactile stimuli that indicate tactile allodynia: von Frey hairs. Type of series: in vivo. As to the method:
(§1) The physiological activity of these compounds was tested using four models: a rat locomotor model to assess sedation, an assay of cardiovascular activity in monkeys, a rat thermal paw withdrawal assay (Dirig et al., J. Neurosci. Methods 76:183-191 (1997) to test the alleviation of acute pain, and the rat spinal nerve ligation allodynia model (Kim and Chung, Pain 50:355-363 (1992) to assess the alleviation of neuropathic pain and central sensitization typical of chronic pain. As is known to those of skill in the art, these tests are established pharmacological methods for determining sedation, cardiovascular effects, acute pain and chronic pain, respectively, of pharmaceutical agents.
A model for chronic pain (in particular peripheral neuropathy such as causalgia) involves the surgical ligation of the L5 (and optionally the L6) spinal nerves on one side in experimental animals. Rats recovering from the surgery gain weight and display a level of general activity similar to that of normal rats. However, these rats develop abnormalities of the foot, wherein the hindpaw is moderately everted and the toes are held together. More importantly, the hindpaw on the side affected by the surgery appears to become sensitive to pain from low-threshold mechanical stimuli, such as that producing a faint sensation of touch in a human, within about 1 week following surgery. This sensitivity to normally non-painful touch is called “tactile allodynia” and lasts for at least two months. The response includes lifting the affected hindpaw to escape from the stimulus, licking the paw and holding it in the air for many seconds. None of these responses is normally seen in the control group.
Rats are anesthetized before surgery. The surgical site is shaved and prepared either with betadine or Novacaine. Incision is made from the thoracic vertebra Xlll down toward the sacrum. Muscle tissue is separated from the spinal vertebra (left side) at the L4-S2 levels. The L6 vertebra is located and the transverse process is carefully removed with a small rongeur to expose the L4-L6 spinal nerves. The L5 and L6 spinal nerves are isolated and tightly ligated with 6-0 silk thread. The same procedure is done on the right side as a control, except no ligation of the spinal nerves is performed.
A complete hemostasis is confirmed, then the wounds are sutured. A small amount of antibiotic ointment is applied to the incised area, and the rat is transferred to the recovery plastic cage under a regulated heat-temperature lamp. On the day of the experiment, at least seven days after the surgery, six rats per test group are administered the test drugs by intraperitoneal (i.p.) injection or oral gavage. For i.p. injection, the compounds are formulated in approximately 50% DMSO and given in a volume of 1 ml/kg body weight. FORMULA 2 was tested at doses ranging between 1 and 300 μg /kg, FORMULA 3 was tested at doses between 0.1 and 3 mg/kg and FORMULA 4 was tested at doses of 0.3 and 3 mg/kg. FORMULA 2 was also administered by oral gavage at doses of 0.1, 0.3 and 1 mg/kg body weight to 24-hour fasted rats. A volume equal to 1 ml/kg body weight of an appropriate concentration (i.e. 1 mg/ml for a 1 mg/kg dose) of FORMULA 2 formulated in approximately 50% DMSO was injected using an 18-gauge, 3-inch gavage needle that is slowly inserted through the esophagus into the stomach.
Tactile allodynia is measured prior to and 30 minutes after drug administration using von Frey hairs that are a series of fine hairs with incremental differences in stiffness. Rats are placed in a plastic cage with a wire mesh bottom and allowed to acclimate for approximately 30 minutes. The von Frey hairs are applied perpendicularly through the mesh to the mid-plantar region of the rats' hindpaw with sufficient force to cause slight buckling and held for 6-8 seconds. The applied force has been calculated to range from 0.41 to 15.1 grams. If the paw is sharply withdrawn, it is considered a positive response. […]

Series [2] relates to Sprague-Dawley rats. In words: rat locomotor model to assess sedation. It is filed as in vivo. Particulars: 30 minutes after injection, vs vehicle controls. The procedure: as §1
To test sedation, six male Sprague-Dawley rats were given up to 3 mg/kg of each compound in a saline or DMSO vehicle by intraperitoneal injection (i.p.). Sedation was graded 30 minutes following administration of the drug by monitoring locomotor skills as follows.
The Sprague-Dawley rats are weighed and 1 ml/kg body weight of an appropriate concentration (i.e. 3 mg/ml for a final dose of 3 mg/kg) drug solution is injected intraperitoneally. FORMULA 3 is formulated in approximately 10% DMSO and FORMULA 2 and FORMULA 4 are formulated in 50% DMSO. The results are compared to 29 historical controls that were injected with 1 ml/kg saline or 50% DMSO. Rat activity is then determined 30 minutes after injection of the drug solution. Rats are placed in a dark covered chamber and a digicom analyzer (Omnitech Electronic) quantitates their exploratory behavior for a five-minute period. The machine records each time the rat interrupts an array of 32 photoelectric beams in the X and Y orientation.

Series [3] deals with patient one. Description: treatment of allodynia resulting from shingles in a patient. It is filed as in vivo, human. Particulars: oral dose in capsule form, two days' treatment. From the text:
person one in generally good physical condition suffers from serious pain to their upper body due caused by contact of their skin with their clothing. The patient is unable to wear clothing on their upper body without severe pain.
The patient is given a therapeutically effective oral dose of FORMULA 3 in capsule form as needed for the treatment of pain.
Same facts as in Example 5, except the patient is given a therapeutically effective oral dose of FORMULA 2 in capsule form as needed for the treatment of pain.

The test system of series [4] is patient two. In words: treatment of visceral pain in a colon cancer patient. It is filed as in vivo, human. Particulars: intravenous infusion twice daily, after two days. From the text: patient two suffering from colon cancer and undergoing chemotherapy experiences severe visceral pain associated with this primary condition. Treatment of this pain with opiates have been ineffective to provide substantial relief.
The patient is given a therapeutic amount of FORMULA 3 by intravenous infusion in a pharmaceutically acceptable vehicle. The treatment is given twice daily.
Under the same facts as Example 7, except the patient is given FORMULA 2 instead of FORMULA 3.

On to `OCCNC(=S)NCc1ccccc1F` [FORMULA 4], for which the “analgesic activity (tactile allodynia)” value in series [1] (i.p., doses up to 3 mg/kg, 30 minutes after drug) was “no analgesic activity”. Further, the “reduction in the exploratory activity of the rats (sedation)” value (from here on “reduction in the exploratory activity”) in series [2] (3 mg/kg i.p.) was “none of the compounds caused a statistically significant reduction”.

As for `OCCNC(=S)NCc1ccc(F)cc1` [FORMULA 3], the “reduction of the response to tactile stimuli that indicate tactile allodynia” value in series [1] (30 minutes after drug) is “able to reduce the response to the tactile stimuli”. Further, the “percent reversal of allodynic pain” value in series [1] (i.p. 1 mg/kg) is 32%; in series [1] (i.p. 3 mg/kg) it was 26%; in series [1] (i.p. dose of 0.3 mg/kg) it was 34%. In series [3], the “allodynia resulting from shingles, patient report” value is “markedly reduced”. Besides, in series [2] (1 mg/kg i.p.), the “reduction in the exploratory activity” value was “none of the compounds caused a statistically significant reduction”. For the same compound, the “visceral pain, patient report” value in series [4] is on record as “significant alleviation”.

Take `OCCNC(=S)NCc1cccc(Cl)c1F` [FORMULA 2, 1-(3-chloro-2-fluorobenzyl)-3-(2-hydroxyethyl)-thiourea]: the “reduction of the response to tactile stimuli that indicate tactile allodynia” value in series [1] (30 minutes after drug) is given as “able to reduce the response to the tactile stimuli”. In addition, the “percent reversal of allodynia” value in series [1] (i.p. 10 μg/kg) is 85%; in series [1] (i.p. 30 μg/kg), 90%; in series [1] (i.p. 100 μg/kg), 95%; in series [1] (i.p. 300 μg/kg), 92%; in series [1] (i.p. dose of 3 μg/kg), 55%. For the same compound, in series [1] (oral doses ranging from 0.1 to 1 mg/kg, 24-hour fasted rats), the “alleviation of allodynic pain” value is recorded as 82-86%. Besides, the “allodynia resulting from shingles, patient report” value in series [3] is listed as “markedly reduced”. Besides, in series [2] (1 mg/kg i.p.), the “reduction in the exploratory activity” value is given as “none of the compounds caused a statistically significant reduction”. Further, the “visceral pain, patient report” value in series [4] is recorded as “significant alleviation”.
